Molecular target: T1, rat mGluR5 receptors (Rattus norvegicus, UniProt P31424)
T1 construct: rat cerebro-cortical membrane preparation was used; from tissue; host or cells: rat cerebral cortex membranes
Test: mGluR5 receptor binding test, rat cerebro-cortical membrane preparation, [3H]-M-MPEP
Details: affinity for rat mGluR5 receptors; [3H]-M-MPEP (2 nM) radioligand
Description: The mGluR5 receptor binding was determined according to the modified method of Gasparini et. al. (Bioorg. Med. Chem. Lett., 2000, 12, 407). Based on the high homology between the human and rat mGluR5 receptors, rat cerebro-cortical membrane preparation was used to determine the binding characteristics of the reference compounds and novel compounds to the rat mGluR5. The A18 cell line expressing hmGluR5a (purchased from Euroscreen) was used to determine binding characteristics of the chemical compounds to the human mGluR5a receptor. [^3H]-M-MPEP (2 nM) was used as radioligand. The nonspecific binding was determined in the presence of 10 μM M-MPEP.

T1 sequence (P31424 21-1203): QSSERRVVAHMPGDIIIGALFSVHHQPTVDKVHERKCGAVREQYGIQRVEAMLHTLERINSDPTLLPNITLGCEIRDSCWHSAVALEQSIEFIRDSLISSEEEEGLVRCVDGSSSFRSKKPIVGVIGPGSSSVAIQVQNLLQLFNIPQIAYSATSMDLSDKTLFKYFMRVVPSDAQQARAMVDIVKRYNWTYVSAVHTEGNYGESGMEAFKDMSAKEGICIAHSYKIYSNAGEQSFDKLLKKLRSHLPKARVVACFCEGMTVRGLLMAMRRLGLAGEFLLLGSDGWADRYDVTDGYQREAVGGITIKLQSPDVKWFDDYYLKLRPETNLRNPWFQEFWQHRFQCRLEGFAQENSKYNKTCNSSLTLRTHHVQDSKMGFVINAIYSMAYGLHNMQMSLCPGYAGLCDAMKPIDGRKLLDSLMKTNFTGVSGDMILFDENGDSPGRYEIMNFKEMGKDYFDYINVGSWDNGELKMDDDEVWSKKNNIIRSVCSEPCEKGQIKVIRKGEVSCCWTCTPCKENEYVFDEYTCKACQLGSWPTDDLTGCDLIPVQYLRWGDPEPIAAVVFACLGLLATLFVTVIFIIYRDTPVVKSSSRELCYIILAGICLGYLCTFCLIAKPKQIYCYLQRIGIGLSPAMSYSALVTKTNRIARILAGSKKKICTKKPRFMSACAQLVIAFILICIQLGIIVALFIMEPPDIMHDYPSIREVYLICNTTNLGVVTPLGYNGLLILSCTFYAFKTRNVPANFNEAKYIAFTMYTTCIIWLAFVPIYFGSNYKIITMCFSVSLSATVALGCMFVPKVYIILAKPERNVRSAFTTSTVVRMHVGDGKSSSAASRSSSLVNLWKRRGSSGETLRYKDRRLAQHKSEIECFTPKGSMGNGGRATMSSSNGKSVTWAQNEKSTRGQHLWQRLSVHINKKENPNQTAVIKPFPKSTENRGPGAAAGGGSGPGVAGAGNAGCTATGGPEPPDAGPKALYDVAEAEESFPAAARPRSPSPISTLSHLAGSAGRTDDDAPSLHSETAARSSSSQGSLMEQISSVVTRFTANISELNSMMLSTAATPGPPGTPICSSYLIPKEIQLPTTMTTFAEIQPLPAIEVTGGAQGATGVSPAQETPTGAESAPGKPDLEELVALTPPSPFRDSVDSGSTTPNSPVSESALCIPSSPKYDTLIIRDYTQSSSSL

| SMILES | Ki [µM] |
| --- | --- |
| Cc1ccc(S(=O)(=O)c2cnc3ccccc3c2N2CCOCC2)cc1C [Compound 1, 3-(3,4-Dimethyl-benzenesulfonyl)-4-(morpholin-4-yl)-quinoline] | < 0.2 |
| Cc1ccc(S(=O)(=O)c2cnc3ccccc3c2N2CCC(C)CC2)cc1C [Compound 3, 3-(3,4-Dimethyl-benzenesulfonyl)-4-(4-methyl-piperidin-1-yl)-quinoline] | < 0.2 |
| CCN(CC)c1c(S(=O)(=O)c2ccc(Cl)cc2)cnc2ccc(C)cc12 [Compound 9] | < 0.2 |
| COc1ccc(S(=O)(=O)c2cnc3ccc(Cl)cc3c2NCc2ccccc2)cc1 [Compound 11] | > 0.5 |
| O=S(=O)(c1ccccc1)c1cnc2ccc(F)cc2c1N1CCN(Cc2ccccc2)CC1 [Compound 13] | > 0.5 |
| CCOc1ccc2ncc(S(=O)(=O)c3ccc(Cl)cc3)c(NCc3ccc(F)cc3)c2c1 [Compound 16] | < 0.2 |
| CCN(CC)c1c(S(=O)(=O)c2ccc(Cl)cc2)cnc2cc3c(cc12)OCCO3 [Compound 18] | > 0.5 |
| CCN1CCN(c2c(S(=O)(=O)c3ccc(C)c(C)c3)cnc3cc4c(cc23)OCO4)CC1 [Compound 19] | > 0.5 |
| O=S(=O)(c1ccccc1)c1cnc2ccccc2c1Nc1ccccc1 [Compound 20] | > 0.5 |
| Cc1ccc(Nc2c(S(=O)(=O)c3ccc(C)cc3)cnc3ccccc23)cc1 [Compound 21] | > 0.5 |
| Cc1ccc(Nc2c(S(=O)(=O)c3ccc(Cl)cc3)cnc3ccccc23)cc1C [Compound 22] | > 0.5 |
| COc1ccc(Nc2c(S(=O)(=O)c3ccc(C)cc3)cnc3ccccc23)cc1OC [Compound 24] | > 0.5 |
| Cc1ccc(S(=O)(=O)c2cnc3ccccc3c2Nc2ccc(F)cc2)cc1 [Compound 25] | > 0.5 |
| Cc1ccc(S(=O)(=O)c2cnc3ccc(C)cc3c2Nc2ccc(Cl)cc2)cc1 [Compound 26] | > 0.5 |
| Cc1ccc(S(=O)(=O)c2cnc3ccccc3c2Nc2ccc3c(c2)OCCO3)cc1 [Compound 27] | > 0.5 |
| Cc1ccc(S(=O)(=O)c2cnc3ccc(C)cc3c2NCc2ccccc2)cc1 [Compound 28] | > 0.5 |
| Cc1ccc(S(=O)(=O)c2cnc3ccc(C)cc3c2NCc2ccc(F)cc2)cc1 [Compound 29] | > 0.5 |
| CCc1ccc2ncc(S(=O)(=O)c3ccc(Cl)cc3)c(NCc3ccc(C)cc3)c2c1 [Compound 30] | > 0.5 |
| COc1ccc(CNc2c(S(=O)(=O)c3ccc(Cl)cc3)cnc3ccccc23)cc1 [Compound 31] | > 0.5 |

| SMILES | Ki [µM] |
| --- | --- |
| CC1CCN(c2c(S(=O)(=O)c3ccccc3)cnc3ccccc23)CC1 [Compound 47] | < 0.2 |
| CC1CCN(c2c(S(=O)(=O)c3ccccc3)cnc3cc4c(cc23)OCCO4)CC1 [Compound 48] | < 0.2 |
| CCOC(=O)C1CCCN(c2c(S(=O)(=O)c3ccccc3)cnc3ccc(CC)cc23)C1 (stereo not drawn) [Compound 57] | > 0.5 |
| O=S(=O)(c1ccccc1)c1cnc2ccccc2c1N1CCC2(CC1)OCCO2 [Compound 60] | > 0.5 |
| CCc1ccc2ncc(S(=O)(=O)c3ccccc3)c(N3CCN(CC)CC3)c2c1 [Compound 63] | > 0.5 |
| O=S(=O)(c1ccccc1)c1cnc2ccccc2c1N1CCN(Cc2ccccc2)CC1 [Compound 64] | > 0.5 |
| Cc1ccc(S(=O)(=O)c2cnc3ccc(C)cc3c2N2CCN(Cc3ccccc3)CC2)cc1 [Compound 65] | > 0.5 |
| CCc1ccc2ncc(S(=O)(=O)c3ccccc3)c(N3CCN(Cc4ccccc4)CC3)c2c1 [Compound 66] | > 0.5 |
| Cc1ccc(S(=O)(=O)c2cnc3ccc(F)cc3c2N2CCN(c3ccccc3)CC2)cc1 [Compound 67] | > 0.5 |
| Cc1ccc(N2CCN(c3c(S(=O)(=O)c4ccccc4)cnc4ccc(F)cc34)CC2)c(C)c1 [Compound 68] | > 0.5 |
| Cc1ccc(S(=O)(=O)c2cnc3ccccc3c2N2CCN(c3cc(C)ccc3C)CC2)cc1 [Compound 70] | > 0.5 |
| O=S(=O)(c1ccccc1)c1cnc2ccccc2c1N1CCN(c2cccc(Cl)c2)CC1 [Compound 71] | > 0.5 |
| O=S(=O)(c1ccc(Cl)cc1)c1cnc2ccccc2c1N1CCN(c2ccc(F)cc2)CC1 [Compound 72] | > 0.5 |
| Cc1ccc(S(=O)(=O)c2cnc3ccc(C)cc3c2N2CCN(c3ccccc3F)CC2)cc1 [Compound 73] | > 0.5 |
| COc1ccccc1N1CCN(c2c(S(=O)(=O)c3ccc(C)cc3)cnc3ccccc23)CC1 [Compound 74] | > 0.5 |
| CCN(CC)c1c(S(=O)(=O)c2ccc(C)cc2)cnc2ccccc12 [Compound 76] | 0.2 to 0.5 |
| Cc1ccc(S(=O)(=O)c2cnc3ccccc3c2NCc2ccccc2)cc1 [Compound 77] | < 0.2 |
| COc1ccc2ncc(S(=O)(=O)c3ccc(Cl)cc3)c(NCc3ccccc3)c2c1 [Compound 78] | > 0.5 |
| O=S(=O)(c1ccc(Cl)cc1)c1cnc2ccccc2c1N1CCN(Cc2ccccc2)CC1 [Compound 79] | 0.2 to 0.5 |

More lines, now with the values ahead:

| Ki [µM] | SMILES |
| --- | --- |
| < 0.2 | Cc1ccc(S(=O)(=O)c2cnc3ccccc3c2N2CCC(C)CC2)cc1 [Compound 2, 3-(4-Methyl-benzenesulfonyl)-4-(4-methyl-piperidin-1-yl)-quinoline] |
| < 0.2 | Cc1ccc(S(=O)(=O)c2cnc3ccccc3c2N2CCCC(C)C2)cc1 (stereo not drawn) [Compound 4, 3-(4-Methyl-benzenesulfonyl)-4-(3-methyl-piperidin-1-yl)-quinoline] |
| 0.2 to 0.5 | O=S(=O)(c1ccccc1)c1cnc2ccccc2c1N1CCCCC1 [Compound 5] |
| < 0.2 | Cc1ccc(S(=O)(=O)c2cnc3ccccc3c2N2CCCCC2)cc1 [Compound 6] |
| > 0.5 | COc1cc2ncc(S(=O)(=O)c3ccccc3)c(N3CCOCC3)c2cc1OC [Compound 7] |
| > 0.5 | O=S(=O)(c1ccc(N2CCCCC2)cc1)c1cnc2ccc(Cl)cc2c1N1CCCCC1 [Compound 8] |
| > 0.5 | CCN1CCN(c2c(S(=O)(=O)c3ccc(F)cc3)cnc3ccc(Cl)cc23)CC1 [Compound 10] |
| > 0.5 | CCc1ccc2ncc(S(=O)(=O)c3ccc(OC)cc3)c(N(CC)CC)c2c1 [Compound 12] |
| 0.2 to 0.5 | Cc1ccc(S(=O)(=O)c2cnc3ccc(F)cc3c2N2CCC(C)CC2)cc1 [Compound 14] |
| > 0.5 | COc1ccc2ncc(S(=O)(=O)c3ccc(Cl)cc3)c(N3CCC(C)CC3)c2c1 [Compound 15] |
| > 0.5 | COc1cccc(Nc2c(S(=O)(=O)c3ccccc3)cnc3ccc(OC)cc23)c1 [Compound 23] |
| < 0.2 | Cc1ccc(S(=O)(=O)c2cnc3ccccc3c2N2CCCCCC2)cc1 [Compound 32] |
| > 0.5 | Cc1ccc(S(=O)(=O)c2cnc3ccc(F)cc3c2N2CCCCCC2)cc1 [Compound 33] |
| 0.2 to 0.5 | O=S(=O)(c1ccc(Cl)cc1)c1cnc2ccccc2c1N1CCCCCC1 [Compound 34] |
| > 0.5 | CCc1ccc2ncc(S(=O)(=O)c3ccccc3)c(N3CCCC3)c2c1 [Compound 35] |
| > 0.5 | CCOc1ccc2ncc(S(=O)(=O)c3ccccc3)c(N3CCCC3)c2c1 [Compound 36] |
| > 0.5 | O=S(=O)(c1ccccc1)c1cnc2ccc(Cl)cc2c1N1CCCC1 [Compound 37] |
| > 0.5 | Cc1ccc(S(=O)(=O)c2cnc3ccc(Cl)cc3c2N2CCOCC2)cc1C [Compound 38] |
| > 0.5 | Cc1ccc2ncc(S(=O)(=O)c3ccc(Cl)cc3)c(N3CCOCC3)c2c1 [Compound 39] |
| > 0.5 | O=S(=O)(c1ccc(Cl)cc1)c1cnc2ccccc2c1N1CCOCC1 [Compound 40] |

| Ki [µM] | SMILES |
| --- | --- |
| > 0.5 | Cc1ccc(S(=O)(=O)c2cnc3ccc(C)cc3c2N2CCCCC2)cc1 [Compound 41] |
| > 0.5 | Cc1ccc(S(=O)(=O)c2cnc3cc4c(cc3c2N2CCCCC2)OCCO4)cc1 [Compound 42] |
| > 0.5 | O=S(=O)(c1ccc(Cl)cc1)c1cnc2ccccc2c1N1CCCCC1 [Compound 43] |
| > 0.5 | COc1ccc(S(=O)(=O)c2cnc3ccc(OC)cc3c2N2CCCCC2)cc1 [Compound 44] |
| > 0.5 | CCc1ccc2ncc(S(=O)(=O)c3ccccc3)c(N3CCCCC3)c2c1 [Compound 45] |
| < 0.2 | Cc1ccc(S(=O)(=O)c2cnc3ccc(C)cc3c2N2CCC(C)CC2)cc1 [Compound 46] |
| > 0.5 | Cc1ccc2ncc(S(=O)(=O)c3ccccc3)c(N3CCC(C)CC3)c2c1 [Compound 49] |
| > 0.5 | COc1ccc2ncc(S(=O)(=O)c3ccc(C)cc3)c(N3CCC(C)CC3)c2c1 [Compound 50] |
| < 0.2 | CCc1ccc2ncc(S(=O)(=O)c3ccc(OC)cc3)c(N3CCC(C)CC3)c2c1 [Compound 51] |
| > 0.5 | CCOC(=O)C1CCN(c2c(S(=O)(=O)c3ccc(C)cc3)cnc3ccc(CC)cc23)CC1 [Compound 52] |
| < 0.2 | CCOC(=O)C1CCN(c2c(S(=O)(=O)c3ccc(Cl)cc3)cnc3ccc(CC)cc23)CC1 [Compound 53] |
| > 0.5 | CCOC(=O)C1CCN(c2c(S(=O)(=O)c3ccc(C)cc3)cnc3ccccc23)CC1 [Compound 54] |
| > 0.5 | CCOC(=O)C1CCN(c2c(S(=O)(=O)c3ccc(C)cc3)cnc3ccc(F)cc23)CC1 [Compound 55] |
| > 0.5 | CCOC(=O)C1CCCN(c2c(S(=O)(=O)c3ccc(C)cc3)cnc3ccccc23)C1 (stereo not drawn) [Compound 56] |
| > 0.5 | CCOC(=O)C1CCCN(c2c(S(=O)(=O)c3ccc(C)cc3)cnc3ccc(OC)cc23)C1 (stereo not drawn) [Compound 58] |
| > 0.5 | Cc1ccc(S(=O)(=O)c2cnc3ccc(C)cc3c2N2CCC(C(N)=O)CC2)cc1 [Compound 59] |
| > 0.5 | CN1CCN(c2c(S(=O)(=O)c3ccc(Cl)cc3)cnc3ccccc23)CC1 [Compound 61] |
| > 0.5 | CCN1CCN(c2c(S(=O)(=O)c3ccc(Cl)cc3)cnc3ccc(C)cc23)CC1 [Compound 62] |
| > 0.5 | COc1ccc2ncc(S(=O)(=O)c3ccccc3)c(N3CCN(c4cccc(C)c4C)CC3)c2c1 [Compound 69] |
| > 0.5 | COc1ccc(N2CCN(c3c(S(=O)(=O)c4ccc(Cl)cc4)cnc4ccc(C)cc34)CC2)cc1 [Compound 75] |

From patent publication US20090270371A1, “QUINOLINE DERIVATIVES USEFUL IN THE TREATMENT OF MGLUR5 RECEPTOR-MEDIATED DISORDERS” (priority 2005, published 2009)
